# From USRE41226E1, “Compounds having reversible inhibiting activity of carnitine palmitoyl-transferase” (Sigma-Tau Industrie Farmaceutiche Riunite S.p.A., priority 1998, dated 2010)
# What was measured:
# CPTI = target: T1, CPTI (Rattus norvegicus, UniProt P32198); assay: Determination of CPT inhibiting activity in rat liver mitochondria; assay type: biochemical, Fischer rat; settings: 50 μM [14C] palmitoyl-CoA, 10 mM L-carnitine, 37° C., 1 minute, read-out: IC50 of inhibition CPTI curve in rat liver mitochondria
# T1 construct: Mitochondria were isolated from liver or heart and suspended in 75 mM saccharose buffer; from tissue; host or cells: liver mitochondria of normally fed Fischer rats
# T1 sequence (P32198 1-773): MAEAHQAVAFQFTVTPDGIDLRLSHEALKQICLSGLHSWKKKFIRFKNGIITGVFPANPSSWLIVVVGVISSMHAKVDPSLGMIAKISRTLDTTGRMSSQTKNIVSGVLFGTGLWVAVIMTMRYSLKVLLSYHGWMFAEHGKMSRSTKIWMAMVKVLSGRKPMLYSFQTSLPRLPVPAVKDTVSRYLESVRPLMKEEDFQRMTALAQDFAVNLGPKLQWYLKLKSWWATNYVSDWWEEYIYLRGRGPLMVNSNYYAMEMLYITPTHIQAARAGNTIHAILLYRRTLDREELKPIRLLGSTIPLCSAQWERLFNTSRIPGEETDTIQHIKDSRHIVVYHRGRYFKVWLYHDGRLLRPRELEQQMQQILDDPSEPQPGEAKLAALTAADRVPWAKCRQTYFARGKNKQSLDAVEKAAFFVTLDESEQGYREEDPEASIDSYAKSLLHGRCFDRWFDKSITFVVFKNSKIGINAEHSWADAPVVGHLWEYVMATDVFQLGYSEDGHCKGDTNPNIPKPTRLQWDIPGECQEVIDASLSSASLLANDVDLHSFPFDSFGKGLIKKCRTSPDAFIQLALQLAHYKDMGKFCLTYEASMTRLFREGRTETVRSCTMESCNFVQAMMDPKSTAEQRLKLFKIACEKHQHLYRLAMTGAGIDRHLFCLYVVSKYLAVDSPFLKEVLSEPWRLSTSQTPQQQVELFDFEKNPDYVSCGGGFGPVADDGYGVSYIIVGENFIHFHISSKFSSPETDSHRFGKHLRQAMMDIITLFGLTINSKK
# Procedure: CPT inhibition was evaluated essentially as described in Kerner, J. & Bieber, L. L. (1990) Biochemistry 29: 4326-34 on fresh mitochrondrial preparation obtained from normally fed Fischer rat liver or heart. Mitochondria were isolated from liver or heart and suspended in 75 mM saccharose buffer, 1 mM EGTA, pH 7.5. 100 μl mitochrondrial suspension, containing 50 μM [^14C] palmitoyl-CoA (specific activity […]) and 10 mM L-carnitine, were incubated at 37° C., in the presence of scalar concentrations of the test product (0-3 mM). Reaction time: 1 minute.
# [1] = system: β-hydroxybutyrate production in rat hepatocytes; assay: Oleate-stimulated β-hydroxybutyrate production in rat hepatocytes; assay type: cell-based; settings: 40 min incubation, then oleate 1 mM for 20 min, mean of three experiments, read-out: IC50 of inhibition CPTI curve of β-hydroxybutyrate production in rat hepatocytes
# Procedure: β-hydroxybutyrate production is an index of CPT activity. In fact, the production of ketone bodies, final products of mitochrondrial β-oxidation, is related to CPT activity.
# Mitocondrial preparations, obtained according to the method by Venerando et al. (Am. J. Physiol. 266:C455-C461, 1994), were used. Hepatocytes are incubated at 37° C. in KRB bicarbonate buffer at pH 7.4, 6 mM glucose, 1% BSA in O2/CO2 95/5 atmosphere at 2.5×10^6 cells/ml. After 40 min incubation with the test compound at different concentrations, the first set of samples was taken (T0 min) and oleate was added (1 mM final in KRB+BSA 1.4%). After 20 minutes, the second withdrawal was made (T20 min)
# The data are the mean of three different experiments, twice carried out.
# 24 hours-starved rats = assay: Glucose and β-hydroxybutyrate in serum of fasted rats treated with CPT inhibitors; assay type: in vivo, Fischer rats; settings: one hour after intraperitoneal treatment, ST1326 14.5 mg/2 ml/kg, others equivalent dose
# Procedure: Normally fed Fischer rats were starved for 24 hours and subsequently treated with the test compounds. One hour after the treatment, the animals were sacrificed and serum concentrations of glucose and β-hydroxybutyrate were determined.
# For the compound ST1326 were used doses of 14.5 mg/2 ml/kg, for other test compounds, the doses are equivalent to ST1326 one.
# [2] = system: hearts perfused according to Langendorff technique; assay: Myocardial ischemia: LDH release from Langendorff-perfused rat hearts (ischemia/reperfusion); parameters: species or system male Wistar rats
# Procedure: To this end, male Wistar rats, weighing 200-225 g, provided by Charles-River, were kept at constant temperature of 23°+/−1° C., 50+/−10% relative humidity, 12 hours light-dark cycle, fed with pellet 4RF21 (Mucedola) tap water ad libitum.
# The amimals were anaesthetised with sodium Pentobarbital at the dose of 70 mg/Kg i.p.. Hearts were rapidly removed and put in a cold Krebs-Henseleit solution, before incannulation of aorta e subsequent perfusion according to Langendorff technique at 37° C. with a pressure of 100 cm water.
# Perfusion medium (Krebs-Henseleit) at pH 7.4 consists in: 128 mM NaCl, 4.7 mM KCl, 1 mM MgCl2, 0.4 mM Na2HP04, 20.2 mM NaHCO3, 1.3 mM CaCl2, 5 mM glucose. The medium was constantly oxygenated with carbogen (95% O2, 5% CO2).
# After a 10 min “conditioning” period, hearts were perfused in a recirculant apparatus for 20 min. with the same medium containing 0.6 mM palmitate complexed with albumine (fraction V, fatty acid free), with or without the CPT inhibitor according to the present invention. By way of example ST 1364 was used at concentrations of 1 and 5 μM. After such a period ischemia was induced by reducing perfusion hydrostatic pressure from 100 cm to 20 cm for a period of 30 min. Reperfusion was started re-establishing the starting pressure conditions (100 cm).Hearts were controlled for 20 min. the inhibitor is present also during reperfusion phase.
# Lactate dehydrogenases (LDH) release was monitored in the effluent in normal oxygenation conditions, during ischemia, with a withdrawal of medium at 30′, and during reperfusion, with withdrawals at 1.5, 10, 15 and 20 minutes.
# Statistical analysis was carried out with Student's “t” test for non-paired data.
# The number of the cases for each group is six (n=6).
# fed with high-fat diet = assay: Glucose and insulin levels in diabetic animals (high-fat diet) treated with CPT inhibitors; assay type: in vivo, C57BL/6J male rats; settings: 45 mg/Kg p.o. twice a day, after 20 days of treatment
# Procedure: C57BL/6J male […], 5-weeks old, were provided by Ch. River. After 10 days of acclimatisation in standard conditions (22±2° C.; 55±15% humidity; 15-20/h air changes; 12 hours light-dark cycle, with 700-1900 lux) and with standard diet with 4RF21 feedstock (Mucedola), glycaemia was controlled in post-absorption state (starving from 8.30 a.m. to 4.30 p.m.). Blood withdrawal was carried out cutting the tail end. Glucose was analyzed in blood acid supernatant (HCLO4 0,375 N) with autoanalyzer Cobas Mira S with Glucose GDH Kit (Roche).
# The animals were divided in two groups, 26 mice each and fed with a high-fat and a low-fat diet, respectively.
# After 2 months from the start of the diet, glycaemia was tested, according to the starrting method. After about 3 months from the start of the diet, glycaemia was tested, according to the starting method and plasma insulin levels were also determined (with blood withdrawal from end tail cutting) using [125I] Rat Insulin Kit (Amersham).
# One 10 mice group fed with low-fat diet and two 10-mice groups fed with the high-fat diet were selected. One of the two high fat diet was administered with ST 1327 at the dose of 45 mg/Kg in deionised H2O (p.o., twice a day, 8.30 a.m. and 5.30 p.m.).administration volume was 10 ml/Kg, the two remaining groups were treated with vehicle only. High-fat or low-fat diets were continued during the treatment.
# After 20 days of treatment, glycaemia and plasma insulin were measured. After 43 days of treatment, the animals were sacrificed by decapitation in post-absorption state (fasting 8.30 a.m.-4.30 p.m.), 8 hours after the last treatment. Blood was withdrawn and serum was separated by centrifugation and stored at −80° C. Liver, heart and skeletal muscle (upper limbs) were also extracted, frozen in dry ice-acetone and kept at −80° C.
Structure (SMILES),IC50 (CPTI),IC50 [1],"Glu (glucose) serum concentration, Mean (24 hours-starved rats)","β-OHB serum concentration, Mean (24 hours-starved rats)",also measured
"CCCCCCCCCCCCCCOP(=O)([O-])O[C@H](CC(=O)O)C[N+](C)(C)C [SDZ-CPI-975, reference compound]",17400 nM,3700 nM,87.6,119.9,
"CCCCCCCCCCS(=O)(=O)NC(CC(=O)[O-])C[N+](C)(C)C (centres unmarked) [ST1364, R,S-4-trimethylammonium-3-(decansulfonyl)aminobutyrate]",,,,,"LDH release in perfusate ([2]; 1 μM, Basal): 275 mU/ml/min; LDH release in perfusate ([2]; 1 μM, Ischemia 30′): 220 mU/ml/min; LDH release in perfusate ([2]; 1 μM, Reperfusion 1′): 480 mU/ml/min; LDH release in perfusate ([2]; 1 μM, Reperfusion 5′): 500 mU/ml/min; LDH release in perfusate ([2]; 1 μM, Reperfusion 10′): 495 mU/ml/min; LDH release in perfusate ([2]; 1 μM, Reperfusion 15′): 510 mU/ml/min; LDH release in perfusate ([2]; 1 μM, Reperfusion 20′): 580 mU/ml/min; LDH release in perfusate ([2]; 5 μM, Basal): 220 mU/ml/min; LDH release in perfusate ([2]; 5 μM, Ischemia 30′): 200 mU/ml/min; LDH release in perfusate ([2]; 5 μM, Reperfusion 1′): 410 mU/ml/min; LDH release in perfusate ([2]; 5 μM, Reperfusion 5′): 380 mU/ml/min; LDH release in perfusate ([2]; 5 μM, Reperfusion 10′): 380 mU/ml/min; LDH release in perfusate ([2]; 5 μM, Reperfusion 15′): 320 mU/ml/min; LDH release in perfusate ([2]; 5 μM, Reperfusion 20′): 325 mU/ml/min; LDH release in the effluent during reperfusion (in words) ([2]; 5 μM, with respect to the controls): significantly reduced"
"CCCCCCCCOC(=O)NC(CC(=O)O)C[N+](C)(C)C.[Cl-] (centres unmarked) [ST1253, R,S-4-trimethylammonium-3-(octyloxycarbonyl)-aminobutyrate chloride]",,900 nM,88.2,118.8,
"CCCCCCCCCNC(=O)NC(CC(=O)[O-])C[N+](C)(C)C (centres unmarked) [ST1251, R,S-4-trimethylammonium-3-(nonylcarbamoyl)aminobutyrate]",,500 nM,76.9,99.8,
"CCCCCCCNC(=O)N[C@H](CC(=O)[O-])C[N+](C)(C)C [ST1328, R-4-trimethylammonium-3-(heptylcarbamoyl)-aminobutyrate]",,,79.5,169.2,
"CCCCCCCCCOC(=O)NC(CC(=O)[O-])C[N+](C)(C)C (centres unmarked) [ST1285, R,S-4-trimethylammonium-3-(nonyloxycarbonyl)-aminobutyrate]",,1900 nM,,,
"CCCCCCCCCCCCCCNC(=O)N[C@H](CC(=O)[O-])C[N+](C)(C)C [ST1326, R-4-trimethylammonium-3-(tetradecylcarbamoyl)amino butyrate]",750 nM,,84.2,133.1,
"CCCCCCCCCCCNC(=O)N[C@H](CC(=O)[O-])C[N+](C)(C)C [ST1327, R-4-trimethylammonium-3-(undecylcarbamoyl)-aminobutyrate]",3200 nM,,84.9,93.0,"Glucose (fed with high-fat diet; High Fat diet Treated, p<0.001 against high fat diet): 181.4 ± 9.63 mg/dL; Insulin (fed with high-fat diet; High Fat diet Treated, p<0.01 against high fat diet): 0.621 ± 0.117 ng/mL; glucose levels (in words) (fed with high-fat diet; high-fat diet): significantly decreased; insulin levels (in words) (fed with high-fat diet; high-fat diet): significantly decreased"
